What was measured:
Assay type in all cases: cell-based
[1] = test system: mCherry-GAL9 expressing 16HBE cells; assay: GAL9 recruitment assay, 16HBE; conditions: calculated mean from >3 independent exp.
Experimental: (§1) Experiments assessing GAL9 localization as an indicator for endosomal remodeling were performed as previously described[15] using 8× stablemCherry-GAL9 expressing cell lines, SHSY5Y, U2OS, 16HBE, NCI-H358, HuH7, HepG2, HEK293, and HeLa. For mCherry-GAL9 recruitment, 3,000 or 6,500 cells/well (depending upon cell line) were seeded into 384-well CellCarrier Ultra plates 24 h prior to treatment (PerkinElmer, catalog no. 6007558). An Echo 655T acoustic dispenser (Labcyte) was used for EEE dose-response preparation by transferring to the cell plate. At assay endpoints, cells were PBS washed, 4% paraformaldehyde fixed at room temperature […] (VWR, catalog no. 9713.1000), and nuclei stained with PBS +1 μg/mL Hoechst 33342 (Thermo Fisher Scientific, catalog no. H21492).
(§2) Imaging was performed using a spinning-disk confocal microscope (Yokogawa: CV8000) with a ×20w objective (numerical aperture 1.0). Cells and mCherry-GAL9 structure identification and quantification were done using Columbus image-analysis software (PerkinElmer version 2.9.0). Data processing was done using Spotfire (Tibco version 11.4) and Prism (GraphPad version 9.1.0). Image panels were assembled using the FigureJ plugin for FIJI.[43] All mCherry-GAL9 experiments were performed three times (N = 3) with duplicated wells per treatment (n = 2).

[2] = test system: mCherry-GAL9 expressing U2OS cells; assay: GAL9 recruitment assay, U2OS; conditions: calculated mean from >3 independent exp.
Experimental: as §1, §2

[3] = test system: mCherry-GAL9 expressing NCI-H358 cells; assay: GAL9 recruitment assay, NCI-H358; conditions: calculated mean from >3 independent exp.
Experimental: as §1, §2

[4] = test system: mCherry-GAL9 expressing HuH7 cells; assay: GAL9 recruitment assay, HuH7; conditions: calculated mean from >3 independent exp.
Experimental: as §1, §2

[5] = test system: mCherry-GAL9 expressing HEK293 cells; assay: GAL9 recruitment assay, HEK293; conditions: calculated mean from >3 independent exp.
Experimental: as §1, §2

[6] = test system: HeLa_Luc705 cells (pLuc/705 splice-switching reporter); assay: Functional 705-SSO delivery, luciferase splice-switching assay; conditions: HeLa-Luc705 + 2 µM SSO; EEE 2.5 - 3 µM; mean from >3 independent experiments
Text: Therefore, next, we functionally screened the SSO delivery in the HeLa_Luc705 reporter cell line. HeLa_Luc705 carries a pLuc/705 splice-switching reporter luciferase gene interrupted by a mutated β-globin intron, which creates a preferentially used cryptic 5′ splice site leading to aberrant splicing. Functional SSO delivery masks the cryptic site, redirecting the splicing machinery to the right splicing site, allowing the measurement of luciferase expression (Figure S1).[25]^,[26]^,[27]^,[28] We used SSO transfection with LF2000 as transfection control and the previously published endosomal escape enhancer CMP05 (here, EEE2) as positive control.[15]
For the assessment of functional SSO therapeutics, a HeLa_Luc705 cell line was grown in DMEM media supplemented with 10% fetal bovine serum (FBS). For most treatments, 10,000 cells/well were seeded in a 96-well plate, 24 h pre-incubated with 1- to 2-μM oligonucleotide, and then treated at the described EEE concentration. At 24 h post-treatment, cells were PBS rinsed and collected for further analysis (treatments and incubation times changed accordingly to the experiment design). Luciferase readout was performed as previously described,[15] using a GloMax 96-well plate microplate luminometer (Promega) immediately after adding 30 μL auto-injected luciferin substrate (Promega Firefly Luciferase Assay System; Thermo Scientific, catalog no. 16174) in a white-walled 96-well plate containing 30 μL 0.1% Triton X-100 (Sigma-Aldrich) cell lysed. Photon exposure time and delay were set to 10 and 2 s after injection. LF2000 was used as the transfection reagent control (Thermo Scientific, catalog no. 11668019). For EEE experiments using 1 or 2 μM SSOs, the control was prepared using lipofection with 100–200 nM SSO; this is to avoid complex induced cell toxicity.
705-SSO was purchased from and synthesized by Integrated DNA Technologies. The 705-SSO sequence was previously published, containing 2′-O-methylated bases and only phosphorothioate-saturated backbone linkages were included.[15] The 705-SSO was high-performance liquid chromatography purified, shipped, and stored in IDTE buffer (10 mM Tris, 0.1 mM EDTA).

[7] = test system: mCherry-GAL9 expressing SHSY5Y cells; assay: GAL9 recruitment assay, SHSY5Y; conditions: calculated mean from >3 independent exp.
Experimental: as §1, §2

[8] = test system: mCherry-GAL9 expressing HeLa cells; assay: GAL9 recruitment assay, HeLa; conditions: calculated mean from >3 independent exp.
Experimental: as §1, §2

[9] = test system: mCherry-GAL9 expressing HepG2 cells; assay: GAL9 recruitment assay, HepG2; conditions: calculated mean from >3 independent exp.
Experimental: as §1, §2

## COc1nn(C2CCN(C)CC2)cc1Nc1ncc(F)c(-n2ccc3ccc(C#N)cc32)n1 [EEE14]
[1]; EEE 0.31 µM
  Gal9 response compared to reference: 0.010
[1]; EEE 0.62 µM
  Gal9 response compared to reference: 0.013
[1]; EEE 1.25 µM
  Gal9 response compared to reference: 0.014
[1]; EEE 2.5 µM
  Gal9 response compared to reference: 0.031
[1]; EEE 5 µM
  Gal9 response compared to reference: 0.118
[1]; EEE 10 µM
  Gal9 response compared to reference: 0.421
[2]; EEE 0.31 µM
  Gal9 response compared to reference: 0.013
[2]; EEE 0.62 µM
  Gal9 response compared to reference: 0.013
[2]; EEE 1.25 µM
  Gal9 response compared to reference: 0.015
[2]; EEE 2.5 µM
  Gal9 response compared to reference: 0.023
[2]; EEE 5 µM
  Gal9 response compared to reference: 0.058
[2]; EEE 10 µM
  Gal9 response compared to reference: 0.232
[3]; EEE 0.31 µM
  Gal9 response compared to reference: 0.015
[3]; EEE 0.62 µM
  Gal9 response compared to reference: 0.019
[3]; EEE 1.25 µM
  Gal9 response compared to reference: 0.019
[3]; EEE 2.5 µM
  Gal9 response compared to reference: 0.026
[3]; EEE 5 µM
  Gal9 response compared to reference: 0.073
[3]; EEE 10 µM
  Gal9 response compared to reference: 0.457
[4]; EEE 0.31 µM
  Gal9 response compared to reference: 0.009
[4]; EEE 0.62 µM
  Gal9 response compared to reference: 0.007
[4]; EEE 1.25 µM
  Gal9 response compared to reference: 0.010
[4]; EEE 2.5 µM
  Gal9 response compared to reference: 0.016
[4]; EEE 5 µM
  Gal9 response compared to reference: 0.047
[4]; EEE 10 µM
  Gal9 response compared to reference: 0.280
[5]; EEE 0.31 µM
  Gal9 response compared to reference: 0.023
[5]; EEE 0.62 µM
  Gal9 response compared to reference: 0.019
[5]; EEE 1.25 µM
  Gal9 response compared to reference: 0.018
[5]; EEE 2.5 µM
  Gal9 response compared to reference: 0.035
[5]; EEE 5 µM
  Gal9 response compared to reference: 0.123
[5]; EEE 10 µM
  Gal9 response compared to reference: 0.443
[6]
  Luciferase expression compared to reference: 0.590
[7]; EEE 0.31 µM
  Gal9 response compared to reference: 0.013
[7]; EEE 0.62 µM
  Gal9 response compared to reference: 0.014
[7]; EEE 1.25 µM
  Gal9 response compared to reference: 0.017
[7]; EEE 2.5 µM
  Gal9 response compared to reference: 0.083
[7]; EEE 5 µM
  Gal9 response compared to reference: 0.403
[7]; EEE 10 µM
  Gal9 response compared to reference: 0.645
[8]; EEE 0.31 µM
  Gal9 response compared to reference: 0.005
[8]; EEE 0.62 µM
  Gal9 response compared to reference: 0.005
[8]; EEE 1.25 µM
  Gal9 response compared to reference: 0.004
[8]; EEE 2.5 µM
  Gal9 response compared to reference: 0.006
[8]; EEE 5 µM
  Gal9 response compared to reference: 0.035
[8]; EEE 10 µM
  Gal9 response compared to reference: 0.213
[9]; EEE 0.31 µM
  Gal9 response compared to reference: 0.008
[9]; EEE 0.62 µM
  Gal9 response compared to reference: 0.005
[9]; EEE 1.25 µM
  Gal9 response compared to reference: 0.005
[9]; EEE 2.5 µM
  Gal9 response compared to reference: 0.005
[9]; EEE 5 µM
  Gal9 response compared to reference: 0.015
[9]; EEE 10 µM
  Gal9 response compared to reference: 0.155

Source: PMC11999280, “Design and screening of novel endosomal escape compounds that enhance functional delivery of oligonucleotides in vitro” (Molecular Therapy. Nucleic Acids, 2025)
